This note sets out measurements from ChEMBL document CHEMBL1140242, “Metabolism investigation leading to novel drug design: orally active prostacyclin mimetics. Part 4” (Bioorg Med Chem Lett, 2005).

The species named for one data set is Homo sapiens. As to the kind of experiment: Inhibition of ADP-induced aggregation of human platelets. The format is functional, organism-based.
A short description of data set [1]: Inhibition of ADP-induced aggregation of monkey platelets. The format is functional. The note with it: Cercopithecidae.
The subject of data set [2] is Rattus norvegicus. Put plainly: Effective dose for in vivo activity in D-GalN/LPS-induced rat hepatic injury model. The format is functional.
The nature of data set [3]: Elimination half-life after peroral administration at a dose of 0.32 (mg/kg) in rat. The format is ADME, organism-based. Particulars: in vivo, po.
A short description of data set [4]: Bioavailability of the drug after […] administration at a dose of 0.32 (mg/kg) in rat. The note with it: in vivo, iv, read-out: Ba. The format is ADME, organism-based.
The nature of data set [5]: Maximum (Peak) plasma drug concentration after single-dose administration at a dose of 0.32 (mg/kg) in rat. The format is ADME, organism-based. Details: dose 0.32 mg/kg.
The nature of data set [6]: Total body clearance of drug from the plasma after i.v. administration at a dose of 0.32 (mg/kg) in rat. The note with it: iv, read-out: CLtot. The format is ADME, organism-based.
For data set [7], the species on record is Rattus norvegicus. Put plainly: Inhibition of ADP-induced aggregation of rat platelets. The format is functional, organism-based.
Data set [8] is described as follows: Area Under Plasma concentration-time curve after peroral administration at a dose of 0.32 (mg/kg) in rat. The format is ADME, organism-based. The note with it: po.
The target of the next data set is Prostacyclin receptor (Homo sapiens, UniProt P43119). Put plainly: Inhibition of [3H]-Iloprost binding to human Prostanoid IP receptor.
Data set [9] in a line: Bioavailability of the drug after […] administration at a dose of 1 (mg/kg) in rat. The format is ADME, organism-based. Particulars: in vivo, iv, read-out: Ba.
The species entered for the next data set is Canis familiaris. Put plainly: Inhibition of ADP-induced aggregation of dog platelets. The format is functional. Particulars: Canis lupus familiaris.
The target in data set [10] is T1, Prostaglandin D2 receptor (Homo sapiens, UniProt Q13258).
T1 sequence (Q13258 whole entry): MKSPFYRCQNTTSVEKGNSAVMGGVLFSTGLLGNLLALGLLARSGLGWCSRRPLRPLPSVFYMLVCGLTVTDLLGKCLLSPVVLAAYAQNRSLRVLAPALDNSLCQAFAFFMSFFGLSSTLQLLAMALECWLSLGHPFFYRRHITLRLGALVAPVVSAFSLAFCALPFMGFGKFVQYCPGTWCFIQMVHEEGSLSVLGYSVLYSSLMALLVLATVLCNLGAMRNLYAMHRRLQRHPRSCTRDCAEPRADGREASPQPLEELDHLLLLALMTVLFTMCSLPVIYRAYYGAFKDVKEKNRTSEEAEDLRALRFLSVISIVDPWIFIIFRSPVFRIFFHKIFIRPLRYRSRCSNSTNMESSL
Put plainly: Inhibition of [3H]PGD-2 binding to human Prostanoid DP receptor.

The target of a further data set is T2, Thromboxane A2 receptor (Homo sapiens, UniProt P21731).
T2 sequence (P21731 whole entry): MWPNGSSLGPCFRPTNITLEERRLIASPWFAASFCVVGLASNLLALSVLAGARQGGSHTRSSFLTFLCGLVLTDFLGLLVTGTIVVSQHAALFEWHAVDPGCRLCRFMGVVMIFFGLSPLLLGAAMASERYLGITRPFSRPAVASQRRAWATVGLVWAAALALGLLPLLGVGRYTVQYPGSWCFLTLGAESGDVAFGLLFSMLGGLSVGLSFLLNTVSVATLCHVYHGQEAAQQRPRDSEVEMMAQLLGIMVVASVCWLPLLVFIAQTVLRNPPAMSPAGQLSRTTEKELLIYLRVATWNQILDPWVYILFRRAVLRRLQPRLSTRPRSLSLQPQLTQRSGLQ
As to the kind of experiment: Inhibition of [3H]SQ-29,548 binding to human Prostanoid TP receptor.

Data set [11] deals with T3, Prostaglandin E2 receptor EP3 subtype (Homo sapiens, UniProt P43115).
T3 sequence (P43115 whole entry): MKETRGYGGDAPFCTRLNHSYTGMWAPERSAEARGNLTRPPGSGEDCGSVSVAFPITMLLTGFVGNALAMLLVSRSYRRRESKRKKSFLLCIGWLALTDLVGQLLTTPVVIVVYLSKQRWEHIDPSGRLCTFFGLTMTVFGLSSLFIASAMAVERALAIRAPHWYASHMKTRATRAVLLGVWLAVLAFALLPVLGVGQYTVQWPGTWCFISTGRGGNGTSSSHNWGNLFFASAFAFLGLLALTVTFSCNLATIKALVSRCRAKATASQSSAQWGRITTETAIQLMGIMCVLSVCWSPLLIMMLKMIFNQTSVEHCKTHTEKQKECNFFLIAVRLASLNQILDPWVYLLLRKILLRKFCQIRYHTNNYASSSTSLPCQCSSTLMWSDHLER
As to the kind of experiment: Inhibition of [3H]-PGE-2 binding to Prostanoid EP3 receptor.

The target in data set [12] is Prostaglandin E2 receptor EP2 subtype (Homo sapiens, UniProt P43116). As to the kind of experiment: Inhibition of [3H]PGE-2 binding to Prostanoid EP2 receptor.
Data set [13] in a line: Total body clearance of drug from the plasma after i.v. administration at a dose of 1 (mg/kg) in rat. Particulars: iv, read-out: CLtot. The format is ADME, organism-based.
Data set [14] in a line: Maximum (Peak) plasma drug concentration after single-dose administration at a dose of 1 (mg/kg) in rat. The format is ADME, organism-based. Also noted: dose 1 mg/kg.
Data set [15] concerns the target Prostaglandin E2 receptor EP4 subtype (Homo sapiens, UniProt P35408). Put plainly: Inhibition of [3H]PGE-2 binding to Prostanoid EP4 receptor.
Data set [16] in a line: Area Under Plasma concentration-time curve after peroral administration at a dose of 1 (mg/kg) in rat. The format is ADME, organism-based. The note with it: po.
For data set [17], the target named is T4, Prostaglandin E2 receptor EP1 subtype (Homo sapiens, UniProt P34995).
T4 sequence (P34995 whole entry): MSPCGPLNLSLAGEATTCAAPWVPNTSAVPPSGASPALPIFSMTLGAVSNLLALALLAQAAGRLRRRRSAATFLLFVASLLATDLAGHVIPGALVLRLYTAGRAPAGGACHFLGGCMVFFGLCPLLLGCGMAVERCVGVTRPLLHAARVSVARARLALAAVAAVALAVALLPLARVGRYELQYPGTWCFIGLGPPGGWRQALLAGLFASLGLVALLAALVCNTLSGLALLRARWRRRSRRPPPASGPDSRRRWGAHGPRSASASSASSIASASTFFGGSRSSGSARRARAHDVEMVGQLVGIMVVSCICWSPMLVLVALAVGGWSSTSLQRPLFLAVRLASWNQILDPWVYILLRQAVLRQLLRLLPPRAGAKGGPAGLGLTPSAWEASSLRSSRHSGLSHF
As to the kind of experiment: Inhibition of [3H]PGE-2 binding to Prostanoid EP1 receptor.

Data set [18] has as its target Prostaglandin F2-alpha receptor (Homo sapiens, UniProt P43088). As to the kind of experiment: Inhibition of [3H]-PGF-2 binding to human Prostanoid FP receptor.

Chain of Prostacyclin receptor (P43119 whole entry): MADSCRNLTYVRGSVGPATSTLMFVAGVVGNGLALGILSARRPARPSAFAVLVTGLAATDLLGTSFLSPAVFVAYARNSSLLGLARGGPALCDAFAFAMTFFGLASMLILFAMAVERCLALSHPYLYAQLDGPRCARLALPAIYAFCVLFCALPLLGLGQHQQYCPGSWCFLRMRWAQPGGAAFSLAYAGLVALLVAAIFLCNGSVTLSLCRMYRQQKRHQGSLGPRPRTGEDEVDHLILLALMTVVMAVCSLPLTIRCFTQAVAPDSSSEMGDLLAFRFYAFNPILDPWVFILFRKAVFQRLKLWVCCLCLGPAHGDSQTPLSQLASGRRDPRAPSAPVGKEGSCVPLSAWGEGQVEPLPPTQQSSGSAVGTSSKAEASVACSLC
Chain of Prostaglandin E2 receptor EP2 subtype (P43116 whole entry): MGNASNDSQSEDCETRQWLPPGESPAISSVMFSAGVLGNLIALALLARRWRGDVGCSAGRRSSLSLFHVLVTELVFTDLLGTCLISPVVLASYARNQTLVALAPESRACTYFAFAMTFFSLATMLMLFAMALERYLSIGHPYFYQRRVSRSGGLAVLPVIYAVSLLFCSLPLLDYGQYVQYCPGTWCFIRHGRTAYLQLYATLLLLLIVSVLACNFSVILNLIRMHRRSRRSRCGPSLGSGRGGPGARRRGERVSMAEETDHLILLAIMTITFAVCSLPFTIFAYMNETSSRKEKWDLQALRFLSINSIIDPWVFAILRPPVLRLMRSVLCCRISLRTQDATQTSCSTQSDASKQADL
Chain of Prostaglandin F2-alpha receptor (P43088 whole entry): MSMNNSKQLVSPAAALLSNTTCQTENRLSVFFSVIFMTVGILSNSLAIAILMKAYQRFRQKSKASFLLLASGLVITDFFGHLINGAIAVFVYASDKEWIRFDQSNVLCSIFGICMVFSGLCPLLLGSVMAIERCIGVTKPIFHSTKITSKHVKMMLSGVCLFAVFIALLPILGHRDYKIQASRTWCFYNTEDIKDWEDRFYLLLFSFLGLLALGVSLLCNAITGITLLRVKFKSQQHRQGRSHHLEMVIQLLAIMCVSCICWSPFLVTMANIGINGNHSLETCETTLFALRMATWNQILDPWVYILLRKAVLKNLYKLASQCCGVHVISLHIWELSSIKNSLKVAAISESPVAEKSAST
Chain of Prostaglandin E2 receptor EP4 subtype (P35408 whole entry): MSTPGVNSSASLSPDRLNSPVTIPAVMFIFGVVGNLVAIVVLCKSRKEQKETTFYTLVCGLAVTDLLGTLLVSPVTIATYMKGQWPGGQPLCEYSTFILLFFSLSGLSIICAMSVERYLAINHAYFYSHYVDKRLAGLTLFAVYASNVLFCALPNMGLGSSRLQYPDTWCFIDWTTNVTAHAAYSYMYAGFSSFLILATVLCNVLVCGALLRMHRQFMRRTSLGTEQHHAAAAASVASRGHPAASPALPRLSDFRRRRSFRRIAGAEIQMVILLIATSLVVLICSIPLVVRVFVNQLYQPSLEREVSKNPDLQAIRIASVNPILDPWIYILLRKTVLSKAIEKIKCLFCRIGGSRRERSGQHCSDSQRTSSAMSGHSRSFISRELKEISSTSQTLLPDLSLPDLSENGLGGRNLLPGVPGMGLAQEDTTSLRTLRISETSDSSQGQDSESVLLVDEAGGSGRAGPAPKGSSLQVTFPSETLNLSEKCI

As for `O=C(O)COc1cccc(C[C@@H]2CCC=CC2(O)c2nc(-c3ccccc3)c(-c3ccccc3)o2)c1` (stereo not given in full), the IC50 – broadly, the midpoint of a concentration-inhibition curve – in the data set filed under Homo sapiens was 98 nM.

The compound `O=C([O-])COc1cccc(C[C@@H]2CCCC=C2c2nc(-c3ccccc3)c(-c3ccccc3)o2)c1.[Na+]` returned an IC50 in [1] of 188 nM. Also, the ED50 (commonly the dose at which the effect has come halfway, by size or by number of responders) with Rattus norvegicus [2] amounted to 0.032 mg/kg. Besides, in [3], the half-life (usually the time needed for the level to fall by half in the phase considered) is 396 min. Further, in data set [4], the bioavailability is 50%. Moreover, in [5], the Cmax – broadly, the peak of the concentration-time curve – stood at 16.4 ng/mL.

In turn, `O=C(O)COc1cccc(C[C@@H]2CCC[C@H]3O[C@@]23c2nc(-c3ccccc3)c(-c3ccccc3)o2)c1` yielded an IC50 in the data set listed under Homo sapiens of 12 nM.

For the compound `O=C(O)COc1cccc(C[C@@H]2CCCC3OC32c2nc(-c3ccccc3)c(-c3ccccc3)o2)c1` (stereo not given in full), the IC50 in the data set filed under Homo sapiens is 14 nM.

Consider `O=C([O-])COc1cccc(C[C@@H]2CCC=C2c2nc(-c3ccccc3)c(-c3ccccc3)o2)c1.[Na+]`, for which the clearance in [6] is 9.19 mL/min/kg. The compound further came in with an ED50 in the data set with Rattus norvegicus [2] of 1 mg/kg. Also, the IC50 in the data set filed under Rattus norvegicus [7] was 2800 nM; in the data set listed under Homo sapiens it was 56 nM. For the same compound, the AUC (in general, concentration integrated over time) in [8] is 42.5 ng·h/mL. The Ki (as a rule, the equilibrium dissociation constant of an inhibitor or competing ligand from its target) on Prostacyclin receptor was determined as 41 nM. For the same compound, in data set [3], the half-life is 1020 min. In addition, the bioavailability in data set [4] is 78%. Also, the highest level in data set [5] (Cmax) was 45.2 ng/mL.

The compound `O=C(O)COc1cccc(C[C@@H]2CCCC(O)=C2c2nc(-c3ccccc3)c(-c3ccccc3)o2)c1` registered an IC50 in the data set listed under Homo sapiens of 116 nM.

In the case of `O=C([O-])COc1cccc(C[C@@H]2CCC[C@@H]3O[C@]23c2nc(-c3ccccc3)c(-c3ccccc3)o2)c1.[Na+]`, the bioavailability in data set [9] amounted to 20%. Besides, the IC50 in the data set listed under Canis familiaris came out at 1470 nM; in [1], 12 nM; in the data set filed under Rattus norvegicus [7], 300 nM; in the data set filed under Homo sapiens it was 5.8 nM. Besides, the Ki stood at 2900 nM in data set [10]; 6.1 nM on Prostacyclin receptor; 930 nM at Thromboxane A2 receptor; 3.2 µM in data set [11]; 1400 nM in data set [12]; 7.2 µM in data set [15]. For the same compound, the Ki in data set [17] and in [18] was over 10 µM in each case. Further, the half-life in data set [3] is 1610 min. For the same compound, the clearance in [13] was found to be 18.6 mL/min/kg. This compound returned a Cmax in data set [14] of 67.9 ng/mL. The compound also displayed an AUC in data set [16] of 168 ng·h/mL.
